We go through 1 compound from patent US10292940B2, “Hyaluronic acid-based amphiphilic polymer, preparation method and application thereof” (BrightGene Bio-Medical Technology Co., Ltd., priority 2015, dated 2019).

Read-outs that look alike come from different tables or passages of the source.

Series [1] relates to MCF-7/ADR tumor. Put plainly: Ex vivo imaging of organs of tumor-bearing nude mice. Type of series: in vivo. As to conditions: DOX about 15 mg/kg, 10 h. As to the method: After 10 h, the heart, liver, spleen, lung, kidney and tumor block were collected, washed and fixed on a black plastic plate, which was then placed in a Maestro in vivo imaging system, and the intensity of DOX distribution in vivo was measured at an emission wavelength of 523 nm.

Series [2] relates to MCF-7/ADR tumor. Put plainly: Bio-distribution in organs of tumor-bearing nude mice. It counts as in vivo. As to conditions: DOX about 15 mg/kg, tail vein, after 10 h.
Series [3] deals with MCF-7/ADR tumor. Put plainly: Anti-tumor effect in nude mice bearing drug-resistant breast-cancer tumor. The source says:
(§1) Tumor-bearing nude mice with a tumor size of 50 mm^3 were randomly divided into three groups (six in each group), and this day is set to day 0. […] Effects of drug-loaded micelles on tumor growth in nude mice were regularly measured with a caliper. Changes in body weight of nude mice were regularly weighed with a balance. The tumor size was obtained based on a formula V=0.5×L×W×H […] of the longest points of the tumor; W is the length of the shortest points of the tumor; H is the height of the tumor). After 24 days, one mouse was randomly taken from each group and was killed by neck and spine dislocation, and the heart, liver and tumor of each mouse were removed and fixed with 4% formaldehyde, sliced and stained with hematoxylin and eosin (H & E) and subjected to histological analysis. The remaining nude mice were still observed. Mice were considered to be died when the nude mice died during treatment, or the tumor volume exceeded 1000 mm^3. Relative tumor volume (%)=tumor volume/tumor volume on day 0×100%. Relative weight change (%)=body weight of nude mice/body weight of nude mice on day 0×100%.

The test system of series [4] is LP1 tumor (multiple myeloma). As to the method:
as §1, with “[…]” for “50 mm^3”, “V=0.5×L×W×H (L” for “V=0.5×L×W×H”, “[…]” for “nude mice/body”

Series [5] in a line: Blood circulation in mice after tail vein injection. Conditions: DOX 15 mg/kg, up to 24 h.
Protocol: Six about 5-8 weeks old nude mice weighing 18-22 g were randomly divided into two groups, and each group was administered with DOX-loaded HA-Lys-LA crosslinked nanoparticles (MnHA=35 kDa, DS=10%, DLC=12%) or free DOX (DOX dosage being 15 mg/kg) via tail vein injection. 10 μL of blood was withdrawn from the tail vein each time at different time points after injection for 2 minutes, 15 minutes, 30 minutes, 1 h, 2 h, 4 h, 6 h, 8 h, 12 h, 24 h. After the blood was withdrawn, the blood sample was weighed and dissolved in 100 μL of 1% Triton solution, and then 1 mL of 0.75 mol/L hydrochloric acid isopropanol solution was added thereto. The mixture was allowed to stand overnight in dark at −20° C. After centrifugation, the supernatant was subjected to fluorescence test. % ID/g=(FL sample×(V Triton+V hydrochloric acid))/(M blood×FL standard×V standard×standard dilution factor)×100%
Six about 5-8 weeks old nude mice weighing 18-22 g were randomly divided into two groups, and each group was administered with DOX-loaded HA-Lys-LA crosslinked nanoparticles (MnHA=35 kDa, DS=40%, DLC=20%) or free DOX (DOX dosage being 15 mg/kg) via tail vein injection. […] After centrifugation, the supernatant was subjected to fluorescence test. % ID/g=(FL sample×(V Triton+V hydrochloric acid))/(M blood×FL standard×V standard×standard dilution factor)×100% […]

Consider `COc1cccc2c1C(=O)c1c(O)c3c(c(O)c1C2=O)C[C@@](O)(C(=O)CO)C[C@@H]3O[C@H]1C[C@H](N)[C@H](O)[C@H](C)O1` [free DOX, doxorubicin], for which, in the series on MCF-7/ADR tumor [1], the “DOX distribution in tumor and organs (ex vivo fluorescence)” value is “almost did not concentrate at the tumor site”. Also, the “enrichment of DOX at the tumor site” value in the series on MCF-7/ADR tumor [2] was 0.63 % ID/g. Moreover, in the series on MCF-7/ADR tumor [3] (DOX about 7.5 mg/kg), the “reduction of body weight of nude mice” value worked out at 28%, the side effects entry is reported as “large side effects” and the “time within which all mice died” value is reported as at most 28 days. For the same compound, the tumor volume growth result in the series with MCF-7/ADR tumor [3] (DOX about 7.5 mg/kg, tail vein) was “could not inhibit tumor growth”. In the series with MCF-7/ADR tumor [3] (after 24 days), the “H&E histology of heart and liver” value was “liver corresponding to the free DOX group was greatly damaged, and myocardial cell atrophied”; the “H&E histology of tumor tissue” value was “grew vigorously”. Also, in series [4] (DOX about 7.5 mg/kg), the “reduction of body weight of nude mice” value is “about 34%”, the “side effects / tolerance” value is listed as “large side effects” and the “time within which all mice died” value is reported as at most 15 days. The “tumor volume growth / therapeutic effect” value in series [4] (DOX about 7.5 mg/kg, tail vein) is “could not inhibit tumor growth”. Besides, in series [4] (DOX about 7.5 mg/kg, listed as free drug), the “side effects / tolerance” value is given as “not tolerated”. Moreover, in series [4] (after 24 days), the “H&E histology of heart and liver” value was “liver corresponding to the free DOX group was greatly damaged, and myocardial cell atrophied”; the “H&E histology of tumor tissue” value was “grew vigorously”. Further, the “blood circulation (DOX in mice blood)” value in series [5] is on record as “almost not detected in mice blood after 2 h”.
